Data published in patent US9861102B2, “Methods for disinfection” (Markesbery Blue Pearl LLC, priority 2016, dated 2018).

System: Bacillus subtilis bacteria
Assay: Closed-system control experiments of peracid reactant compounds, percent kill
Assay type: cell-based
Conditions: for Percent Kill: B. subtilis agar plates, electrostatic spray, 2-micron thickness, concentrations as in Example 2, charge as indicated
Text: The electrostatic spray device used was a Hurricane ES™ Portable Electrostatic Aerosol Applicator, modified to selectively impart either a positive, negative, or neutral charge when dispersing an aqueous composition containing a peracid reactant compound. In experiments where multiple aqueous compositions containing peracid reactant compounds were dispersed, the compositions were dispersed sequentially, and all aqueous compositions were dispersed with either a positive, negative, or neutral charge, as indicated below in Table 5. […] In all experiments, the percent by weight of distilled water was adjusted appropriately in response to the addition or deletion of a peracid reactant compound. […] Processing and handling of the agar plates containing the B. subtilis bacteria was conducted according to the procedure used in Example 3.

| SMILES | Percent Kill | effect on bacterial growth (ethanol on its own) |
| --- | --- | --- |
| CC(=O)O [Exp 8, Acetic Acid] | 6% |  |
| OO [Exp 7, Hydrogen Peroxide] | 72% |  |
| CCO [Exp 9, Ethanol] | 0% | no effect |
